Assay results: patent US8242289B2, “Alkyl-substituted tetrahydropyrans as flavoring substances” (SYMRISE AG, priority 2009, dated 2012)

Assay: Sensory comparison of flavored products with the flavor not according to the invention
Assay type: in vivo

CCC1OC(C)(CC)CCC1C(C)C (stereo not shown) [2,6-diethyl-5-isopropyl-2-methyl-tetrahydropyran]
feeling of freshness (standard chewing gum (Example 2.12), 2% flavor composition): more intense feeling of freshness | fullness in the mouth (standard chewing gum (Example 2.12), 2% flavor composition, in particular at the start of chewing): greater fullness in the mouth | boost effect (sugar-free chewing gum (Example 2.11), 1% cinnamon type cool flavor): distinct “boost effect” | feeling of freshness (sugar-free chewing gum (Example 2.11), 1% flavor composition, in particular initial phase of consumption): more intense feeling of freshness | feeling in the mouth (toothpaste 'silica opaque' (Example 2.15), 1% flavor composition): fresher feeling in the mouth | fullness in the mouth (toothpaste 'silica opaque' (Example 2.15), 1% flavor composition, during brushing): increased fullness in the mouth | feeling of freshness (toothpaste, phosphate base (Example 2.13), 1% flavor composition, in particular at the start of brushing): distinct feeling of freshness | effect of the flavor when brushing (toothpaste, phosphate base (Example 2.13), 1% spearmint type flavor): intensified effect of the flavor when brushing | retronasal cooling (toothpaste, transparent gel (Example 2.14), 1% flavor composition): distinct retronasal cooling | freshness profile (toothpaste, transparent gel (Example 2.14), 1% flavor composition, during brushing): clearer freshness profile
